{"source": "paper PMC11327220", "about": "(Bioscience Reports, 2024)", "key": {"SARS-CoV-2 3CLpro [1]": {"biological_target": "T1, SARS-CoV-2 3CLpro (Severe acute respiratory syndrome coronavirus 2, UniProt P0DTD1)", "experiment": "biochemical", "assay_type": "biochemical"}, "3CLpro": {"biological_target": "3CLpro (Severe acute respiratory syndrome coronavirus 2, UniProt P0DTD1)", "assay_type": "binding, SARS-CoV-2"}, "SARS-CoV-2 3CLpro [2]": {"biological_target": "T1, SARS-CoV-2 3CLpro", "experiment": "Inhibition kinetics of luteolin (competitive inhibition fit)", "assay_type": "biochemical"}, "[3]": {"tested_on": "SARS-CoV-2 (ancestral strain A2.2)", "experiment": "microbe, parasite or virus in culture", "assay_type": "cell-based", "conditions": "Severe acute respiratory syndrome coronavirus 2, HEK-293T, read-out: IC50 in the live virus assay"}, "SARS-CoV-1 3CLpro": {"biological_target": "SARS-CoV-1 3CLpro (Severe acute respiratory syndrome coronavirus, UniProt P0C6X7)", "experiment": "biochemical"}, "MERS 3CLpro": {"biological_target": "MERS 3CLpro (Middle East respiratory syndrome-related coronavirus, UniProt K9N7C7)", "sequence (K9N7C7 3248-3553 limits assumed)": "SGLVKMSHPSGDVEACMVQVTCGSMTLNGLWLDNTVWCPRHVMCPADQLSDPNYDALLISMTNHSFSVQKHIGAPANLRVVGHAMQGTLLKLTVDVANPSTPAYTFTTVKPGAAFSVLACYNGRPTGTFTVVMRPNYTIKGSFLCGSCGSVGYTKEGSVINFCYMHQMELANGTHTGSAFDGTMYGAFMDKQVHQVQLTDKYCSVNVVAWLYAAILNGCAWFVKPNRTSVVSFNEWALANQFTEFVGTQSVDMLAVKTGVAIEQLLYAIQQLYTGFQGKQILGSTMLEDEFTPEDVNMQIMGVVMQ", "experiment": "biochemical"}, "[4]": {"conditions": "read-out: IC50 of micronutrients against 3CLpro"}, "[5]": {"conditions": "additive in the absence of luteolin"}, "[6]": {"conditions": "one additive: 100 µM luteolin, 3.5 mM magnesium, 2.3 mM manganese, 0.3 mM zinc or 0.3 mM vitamin C, free enzyme 133 ± 4"}, "[7]": {"conditions": "2.3 mM manganese, 3.5 mM magnesium or 0.3 mM vitamin C, no luteolin"}, "[8]": {"conditions": "0.3 mM vitamin C in the presence of 100 µM luteolin"}, "[9]": {"conditions": "versus luteolin without micronutrients"}}, "note": "Values joined by “and” are separate entries in the source; they are usually repeats but may differ in a detail not shown here. Identical values can stand only once. Like-named read-outs stand apart in the source and are kept apart here."}
{"smiles": "[Ca+2].[Cl-].[Cl-]", "note": "[CaCl2]", "values": [{"measurement": "IC50", "setting": "SARS-CoV-2 3CLpro [1]; [4]", "value": "1.9 ± 0.2", "unit": "mM"}]}
{"smiles": "O=c1c2ccccc2[se]n1-c1ccccc1", "note": "[Ebselen, reference compound]", "values": [{"measurement": "percentage inhibition of SARS-CoV-2 3CLpro", "setting": "SARS-CoV-2 3CLpro [1]", "value": "completely inhibits"}]}
{"smiles": "[Cl-].[Cl-].[Mg+2]", "note": "[MgCl2]", "values": [{"measurement": "Tm of the first transition (Tm1) of 3CLpro", "setting": "3CLpro", "value": "35 ± 0.3", "unit": "°C"}, {"measurement": "Tm of the second transition (Tm2) of 3CLpro", "setting": "3CLpro", "value": "45 ± 0.5", "unit": "°C"}, {"measurement": "fold increase of ΔHcal over free 3CLpro", "setting": "3CLpro; [5]", "value": 2, "unit": "fold"}, {"measurement": "calorimetric enthalpy (ΔHcal) of unfolding of 3CLpro", "setting": "3CLpro; [6]", "value": "264 ± 15", "unit": "kJ/mol"}, {"measurement": "IC50", "setting": "SARS-CoV-2 3CLpro [1]; [4]", "value": "24 ± 1.1", "unit": "mM"}]}
{"smiles": "[Cl][Mn][Cl]", "note": "[MnCl2]", "values": [{"measurement": "Tm of the first transition (Tm1) of 3CLpro", "setting": "3CLpro; [7]", "value": "35 ± 0.3", "unit": "°C"}, {"measurement": "Tm of the second transition (Tm2) of 3CLpro", "setting": "3CLpro; [7]", "value": "45 ± 0.5", "unit": "°C"}, {"measurement": "fold increase of ΔHcal over free 3CLpro", "setting": "3CLpro; [5]", "value": 3, "unit": "fold"}, {"measurement": "calorimetric enthalpy (ΔHcal) of unfolding of 3CLpro", "setting": "3CLpro; [6]", "value": "356 ± 45", "unit": "kJ/mol"}, {"measurement": "IC50", "setting": "SARS-CoV-2 3CLpro [1]; [4]", "value": "2.3 ± 0.2", "unit": "mM"}]}
{"smiles": "O=C1O[C@H]([C@@H](O)CO)C(O)=C1O", "note": "[Vitamin C, L-ascorbate]", "values": [{"measurement": "Tm of the first transition (Tm1) of 3CLpro", "setting": "3CLpro", "value": 34, "unit": "°C"}, {"measurement": "Tm of the second transition (Tm2) of 3CLpro", "setting": "3CLpro", "value": "45 ± 0.7", "unit": "°C"}, {"measurement": "calorimetric enthalpy (ΔHcal) of unfolding of 3CLpro", "setting": "3CLpro; [8]", "value": "1288 ± 136.3", "unit": "kJ/mol"}, {"measurement": "fold increase of ΔHcal over free 3CLpro", "setting": "3CLpro; [8]", "value": 10, "unit": "fold"}, {"measurement": "Tm of the late transition (Tm3) of 3CLpro", "setting": "3CLpro; 0.3 mM vitamin C, no luteolin", "value": "56 ± 0.2", "unit": "°C"}, {"measurement": "fold increase of ΔHcal over free 3CLpro", "setting": "3CLpro; [5]", "value": 8, "unit": "fold"}, {"measurement": "calorimetric enthalpy (ΔHcal) of unfolding of 3CLpro", "setting": "3CLpro; [6]", "value": "1034 ± 58", "unit": "kJ/mol"}, {"measurement": "IC50", "setting": "SARS-CoV-2 3CLpro [1]", "value": "0.8 ± 0.02", "unit": "mM"}]}
{"smiles": "[Cl-].[Cl-].[Zn+2]", "note": "[ZnCl2]", "values": [{"measurement": "decrease of Tm compared with apo-3CLpro", "setting": "3CLpro", "value": "approximately 6 °C"}, {"measurement": "melting point (Tm) of 3CLpro, single transition", "setting": "3CLpro", "value": "41 ± 0.4", "unit": "°C"}, {"measurement": "fold increase of ΔHcal over free 3CLpro", "setting": "3CLpro; [5]", "value": 4, "unit": "fold"}, {"measurement": "calorimetric enthalpy (ΔHcal) of unfolding of 3CLpro", "setting": "3CLpro; [6]", "value": "453 ± 50", "unit": "kJ/mol"}, {"measurement": "IC50", "setting": "SARS-CoV-2 3CLpro [1]; [4]", "value": "1.1 ± 0.2", "unit": "mM"}]}
{"smiles": "O=c1cc(-c2ccc(O)c(O)c2)oc2cc(O)cc(O)c12", "note": "[luteolin, 2-(3,4-dihydroxyphenyl)-5,7-dihydroxy-4H-chromen-4-one]", "values": [{"measurement": "melting point (Tm) of 3CLpro, single transition", "setting": "3CLpro; 25 μM 3CLpro with 100 µM luteolin or 0.3 mM zinc, apo-3CLpro 46.7 ± 0.1", "value": "46.7 ± 0.1", "unit": "°C"}, {"measurement": "effect of adding luteolin on the thermograms of 3CLpro in the presence of metal ions", "setting": "3CLpro; 100 µM luteolin with metal ions", "value": "minimal effect"}, {"measurement": "calorimetric enthalpy (ΔHcal) of unfolding of 3CLpro", "setting": "3CLpro; [6]", "value": "101 ± 15", "unit": "kJ/mol"}, {"measurement": "Ki", "setting": "SARS-CoV-2 3CLpro [2]", "value": "93 ± 12", "unit": "µM"}, {"measurement": "fold increase of Ka over Km of the peptide substrate in the absence of inhibitor", "setting": "SARS-CoV-2 3CLpro [2]; in the presence of luteolin", "value": "~6", "unit": "fold"}, {"measurement": "apparent Michaelis constant (Ka) for the peptide substrate in the presence of luteolin", "setting": "SARS-CoV-2 3CLpro [2]; luteolin 40-400 µM, Km without inhibitor 66 ± 7 µM", "value": "406 ± 48", "unit": "µM"}, {"measurement": "inhibition pattern", "setting": "SARS-CoV-2 3CLpro [2]; luteolin versus the peptide substrate", "value": "competitive inhibition"}, {"measurement": "IC50", "setting": "[3]", "value": "90 ± 11", "unit": "µM"}, {"measurement": "IC50", "setting": "SARS-CoV-1 3CLpro", "value": "711 ± 130", "unit": "µM"}, {"measurement": "IC50", "setting": "MERS 3CLpro", "value": "388 ± 59", "unit": "µM"}, {"measurement": "fold decrease of the IC50 of luteolin with the combination of vitamin C and magnesium", "setting": "SARS-CoV-2 3CLpro [1]", "value": 3, "unit": "fold"}, {"measurement": "fold decrease of the IC50 of luteolin with the combination of zinc and magnesium", "setting": "SARS-CoV-2 3CLpro [1]", "value": 2, "unit": "fold"}, {"measurement": "IC50", "setting": "SARS-CoV-2 3CLpro [1]; 2 µM 3CLpro, 60 µM peptide substrate, absence of micronutrients", "value": 0.078, "unit": "mM"}, {"measurement": "inhibition at 25 µM", "setting": "SARS-CoV-2 3CLpro [1]; read-out: percentage inhibition of SARS-CoV-2 3CLpro", "value": 41, "unit": "%"}, {"measurement": "fold decrease of the IC50 of luteolin in the presence of magnesium", "setting": "SARS-CoV-2 3CLpro [1]; [9]", "value": "1.7 fold and 2 fold"}, {"measurement": "fold decrease of the IC50 of luteolin in the presence of magnesium, zinc, and vitamin C", "setting": "SARS-CoV-2 3CLpro [1]; [9]", "value": 10, "unit": "fold"}, {"measurement": "fold increase of the IC50 of luteolin in the presence of calcium", "setting": "SARS-CoV-2 3CLpro [1]; [9]", "value": 2, "unit": "fold"}, {"measurement": "fold increase of the IC50 of luteolin in the presence of zinc", "setting": "SARS-CoV-2 3CLpro [1]; [9]", "value": 2, "unit": "fold"}]}
